Reference: patent publication US4291024A, “Cytotoxic liponucleotide analogs” (priority 1980, dated 1981)
Structures can show the parent of a compound that is named as a salt.

Tests used:
[1] = tested on: leukemic cells L5178Y; assay: Animal antitumor activity of liponucleotides (leukemic cell kill in the peritoneal cavity); assay type: in vivo, mouse; settings: for PERCENT SURVIVAL: L5178Y i.p., control 100
Description: The leukemic cells L5178Y (4×10^5 cells/mouse) were injected intraperitoneally on day 0. Drugs at various dosages (20 mg/kg, 40 mg/kg and 100 mg/kg) were injected on day 5 and incubated for 2 hours. At the end of the incubations, 5.0 ml of Fischer's medium containing 10% horse serum (FMS) was injected […].). After mixing, 1.0 ml aliquots were withdrawn and transferred to culture tubes containing 5.0 ml of FMS. Cells were centrifuged immediately, washed 2 xs and resuspended in 5.0 ml of FMS. Cell viability was determined by the dilute agar colony method.

[2] = tested on: murine leukemic cells L5178Y; assay: Inhibition of reproduction of murine leukemic cells L5178Y by liponucleotides - 2 hours (dilute agar colony method); assay type: cell-based; settings: for viability at 100 µM / viability at 10 µM / viability at 1 µM / viability at 0.1 µM: Mus musculus, L5178Y, 2 hours, untreated control normalized to 100%, read-out: PERCENT SURVIVAL; for viability at 100 µM: 1 × 10^-4 M; for viability at 10 µM: 1 × 10^-5 M; for viability at 1 µM: 1 × 10^-6 M; for viability at 0.1 µM: 1 × 10^-7 M
Description: L5178Y cells (2×10^5 /ml) in the exponential phase of growth were incubated singly with drugs for a period of 2 hours at concentrations of […] to 1×10^-7 M. Cell viability was determined by the dilute agar colony method. Each observation represents the mean value of three experimentations with four replicates per experiment. A minimum of 200 colonies were counted for each group. The cloning efficiency of the untreated cells was approximately 75%; all values were normalized to 100%.

[3] = tested on: mouse antisheep erythrocyte antibody-forming cells; assay: Suppression of IgM and IgG mouse antisheep erythrocyte antibody-forming cells (AFC); assay type: in vivo
[4] = tested on: leukemia L5178Y ascites cells; assay: Survival time of mice bearing leukemia L5178Y ascites cells, Ia-11-diglyceride; assay type: in vivo, mouse; settings: for AVERAGE SURVIVAL (DAYS ± S.E.): control 17.6 ± 0.2; for prolongation of survival times: mice bearing leukemia L5178Y cells
Description: Mice (10/group) were inoculated with L5178Y cells (5×10^6 cells/mouse) and drug injections were begun on the second day. The drug in a volume of 0.1 ml was injected intraperitioneally once a day for four consecutive days. Saline was administered to the controls. The percent change in body weight from the onset to the termination of therapy was used as an indication of drug toxicity.

[5] = tested on: CMI-DTH reactions; assay: CMI-DTH reactions; assay type: in vivo, mouse
[6] = tested on: murine leukemic cells L5178Y; assay: Inhibition of reproduction of murine leukemic cells L5178Y by cytotoxic liponucleotide analogs - 72 hours; assay type: cell-based; settings: for IC50: read-out: MOLAR CON[…] 50 PERCENT INHIBITION, 50% decrease in number of doublings vs untreated controls, read-out: MOLAR CONCENTRATION CAUSING 50 PERCENT INHIBITION
Description: The leukemic cells L5178Y were grown from an inoculum of 4×10^3 cells per ml for a period of 72 hours in the presence of different levels (10^-4 -10^-7 M) of drugs.

[7] = tested on: human colon carcinoma HCT-15 cells; assay: Antitumor activity against human colon carcinoma in immunosuppressed mice; assay type: in vivo, mouse; settings: for TUMOR WEIGHT: control 89.7 ± 4.9
Description: Male B6D2F1 mice (18-22 g, 4/group) were immunosuppressed with 0.25 ml subcutaneous injection of ATS on days -1,0,1,3 and 6. Human colon carcinoma cells (5.0×10^6 cells/mouse) were inoculated subcutaneously into an area slightly above the left inguinal region on day 0. The drug dissolved in saline to a volume of 0.1 ml was injected intraperitoneally once a day for four consecutive days. Saline was administered to the controls. The percent change in body weight from the onset to the day of weighing the tumor was used as an indication of drug toxicity.

[8] = tested on: leukemia L5178Y ascites cells; assay: Survival time of mice bearing leukemia L5178Y ascites cells, Ia-11-dipalmitin; assay type: in vivo, mouse; settings: for PER CENT CHANGE IN LIFE SPAN / AVERAGE SURVIVAL / PER CENT CHANGE IN WEIGHT: i.p. twice a day ×4 days; for AVERAGE SURVIVAL: control 15.0 ± 0.28; for PER CENT CHANGE IN WEIGHT: control -1.4
Description: Mice (10/group) were inoculated with L5178Y cells (5×10^6 cells/mouse) and drug injections were begun on the second day. The drug in a volume of 0.2 ml was injected intraperitoneally twice a day at a five-hour interval for four consecutive days. Distilled water was administered to the controls. The percent change in body weight from the onset to the termination of therapy was used as an indication of drug toxicity.

[9] = LD10 (lethality); assay type: in vivo; settings: ×4 regimen
[10] = 50 mg/kg/day×4, intraperitoneal
[11] = 30 mg/kg daily dosage (first 30 line)
[12] = 30 mg/kg daily dosage (second 30 line)

Compound: CCCCCCCCCCCCCCCC(=O)OCC(COP(=O)(O)OP(=O)(O)OC[C@H]1O[C@@H](n2ccc(N)nc2=O)[C@H](O)[C@@H]1O)OC(=O)CCCCCCCCCCCCCCC (mixture of isomers) [Ia-1-Dipalmitin, 1-Beta-D-Ribofuranosylcytosine-5'-Diphosphate-DL-1,2-Dipalmitin Diammonium Salt]
- PERCENT SURVIVAL ([1]; 20 mg/kg on day 5, 2 hours): 57%
- PERCENT SURVIVAL ([1]; 40 mg/kg on day 5, 2 hours): 54%
- PERCENT SURVIVAL ([1]; 100 mg/kg on day 5, 2 hours): 43%
- activity relative to the CLNA molecule containing the beta-D-arabinofuranosyl moiety ([1]; peritoneal cavity (Table 3)): activity comparable to the CLNA molecule
- viability at 100 µM [2]: 65.7 ± 5.69%
- viability at 10 µM [2]: 76.7 ± 6.66%
- viability at 1 µM [2]: 94.7 ± 4.04%
- viability at 0.1 µM [2]: 94.7 ± 5.03%
- activity relative to the CLNA molecule containing the beta-D-arabinofuranosyl moiety ([2]; in culture (Table 1)): activity comparable to the CLNA molecule

Compound: 1-Beta-D-Arabinofuranosylcytosine-5'-diphosphate-L-diglyceride Diammonium Salt [Ia-11-Diglyceride]
- IgG AFC/10^6 spleen cells [3, 10]: background levels
- IgG AFC/spleen [3, 10]: background levels
- IgM AFC/10^6 spleen cells [3, 10]: background levels
- IgM AFC/spleen [3, 10]: background levels
- suppression of IgM and IgG AFC relative to cytosine arabinoside "equivalent" ([3]; mouse, in vivo): more pronounced suppression
- % CHANGE IN LIFE SPAN ([4]; 12.5 mg/kg daily i.p. ×4 days): +29.6%
- AVERAGE SURVIVAL (DAYS ± S.E.) ([4]; 12.5 mg/kg daily i.p. ×4 days): 22.0 ± 0.6 days
- % CHANGE IN LIFE SPAN ([4]; 25.0 mg/kg daily i.p. ×4 days): +44.3%
- AVERAGE SURVIVAL (DAYS ± S.E.) ([4]; 25.0 mg/kg daily i.p. ×4 days): 25.4 ± 1.1 days
- % CHANGE IN LIFE SPAN ([4]; 50.0 mg/kg daily i.p. ×4 days): +93.2%
- AVERAGE SURVIVAL (DAYS ± S.E.) ([4]; 50.0 mg/kg daily i.p. ×4 days): 34.0 ± 2.4 days
- log cell kill ([4]; 50 mg/kg/day×4): 4 log
- prolongation of survival times ([4]; 50 mg/kg/day×4): 93%
- difference in antitumor activity in vivo vs Ia-11-dipalmitin ([4]; Table 4 compared with Table 5): significant difference in antitumor activity in vivo
- in vivo activity relative to cytosine arabinoside ([4]; leukemia L5178Y in vivo (Table 4)): significantly more active than cytosine arabinoside
- delay of peak DTH response ([5]; 50 mg/kg, (day 4-7) or more): ≥ 3 days
- immunostimulatory activity on DTH ([5]; 50 mg/kg, later periods, judged by very late rising profile of response): may have immunostimulatory activity on DTH at later periods
- antitumor activity in culture relative to Ia-11-dipalmitin ([6]; in culture (Table 2)): superior activity
- PER CENT OF CONTROL TUMOR WEIGHT ([7]; 25 mg/kg daily i.p. ×4 days): 68.4 ± 15.6 PER CENT
- TUMOR WEIGHT ([7]; 25 mg/kg daily i.p. ×4 days): 61.3 ± 14.0 mg
- PER CENT OF CONTROL TUMOR WEIGHT ([7]; 50 mg/kg daily i.p. ×4 days, *P 0.005 (1tailed "t" test)): 21.0 ± 13.5 PER CENT
- TUMOR WEIGHT ([7]; 50 mg/kg daily i.p. ×4 days): 18.7 ± 12.0 mg
- inhibition of tumor growth ([7]; 50 mg/kg/day×4, excised tumors weighed, vs non-treated control): 80%

Compound: Nc1ccn([C@@H]2O[C@H](COP(=O)(O)O)[C@@H](O)[C@@H]2O)c(=O)n1 [Cytosine Arabinoside 5'-Phosphate]
- viability at 100 µM [2]: 54.8 ± 1.54%
- viability at 10 µM [2]: 87.5 ± 5.18%
- viability at 1 µM [2]: 93 ± 8.9%
- viability at 0.1 µM [2]: 99 ± 5.21%
- IC50 ([6]; Mus musculus, L5178Y, 72 hours): 0.27 µM

Compound: CCCCCCCCCCCCCCCC(=O)OCC(COP(=O)(O)OP(=O)(O)OC[C@H]1O[C@@H](n2ccc(N)nc2=O)[C@@H](O)[C@@H]1O)OC(=O)CCCCCCCCCCCCCCC (mixture of isomers) [Ia-11-Dipalmitin, 1-Beta-D-Arabinofuranosylcytosine-5'-diphosphate-DL-1,2-dipalmitin Diammonium Salt]
- PERCENT SURVIVAL ([1]; 20 mg/kg on day 5, 2 hours): 61%
- PERCENT SURVIVAL ([1]; 40 mg/kg on day 5, 2 hours): 58%
- PERCENT SURVIVAL ([1]; 100 mg/kg on day 5, 2 hours): 43%
- PER CENT CHANGE IN LIFE SPAN [8, 11]: +24.0 PER CENT
- AVERAGE SURVIVAL [8, 11]: 18.6 ± 0.22 days
- PER CENT CHANGE IN WEIGHT [8, 11]: -5.0 PER CENT
- PER CENT CHANGE IN LIFE SPAN [8, 12]: +32.0 PER CENT
- AVERAGE SURVIVAL [8, 12]: 19.8 ± 0.82 days
- PER CENT CHANGE IN WEIGHT [8, 12]: -5.86 PER CENT
- PER CENT CHANGE IN LIFE SPAN ([8]; 50 mg/kg daily dosage): +37.3 PER CENT
- AVERAGE SURVIVAL ([8]; 50 mg/kg daily dosage): 20.6 ± 0.76 days
- PER CENT CHANGE IN WEIGHT ([8]; 50 mg/kg daily dosage): -3.5 PER CENT
- in vivo activity relative to cytosine arabinoside ([8]; leukemia L5178Y in vivo (Table 5)): significantly more active than cytosine arabinoside
- viability at 100 µM [2]: 65 ± 1.73%
- viability at 10 µM [2]: 84.3 ± 0.58%
- viability at 1 µM [2]: 90 ± 4.58%
- viability at 0.1 µM [2]: 94 ± 3%
- PERCENT INHIBITION AT 10^-4 M ([6]; 10^-4 M, 72 hours, listed as ara-CDP-dipalmitin, Diammonium Salt): less than 50%
- inhibition at 100 µM ([6]; Mus musculus, L5178Y, 72 h, 10^-4 M, 72 hours, read-out: PERCENT INHIBITION AT 10^-4 M): 42%

Compound: CCCCCCCCCCCCCCCC(=O)OCC(COP(=O)(O)OP(=O)(O)OC[C@H]1O[C@@H](n2ccc(N)nc2=O)[C@@H](O)[C@@H]1O)OC(=O)CCCCCCCCCCCCCCC (stereo partly shown)
- IC50 ([6]; Mus musculus, L5178Y, 72 hours): 14 µM

Compound: Nc1ccn([C@@H]2O[C@H](CO)[C@@H](O)[C@@H]2O)c(=O)n1 [Cytosine Arabinoside, cytosine arabinoside, reference compound]
- reduction of peak (day 4) number of IgM AFC/10^6 spleen cells ([3]; 11 mg/kg/day×4): 63%
- reduction of peak (day 5) number of IgG AFC/10^6 spleen cells ([3]; 11 mg/kg/day×4): 55%
- peak (day 5) number of IgG AFC/10^6 spleen cells ([3]; 11 mg/kg/day×4, from 494±123): 224±72 AFC/10^6 spleen cells
- peak (day 4) number of IgM AFC/10^6 spleen cells ([3]; 11 mg/kg/day×4, from 495±130): 180±28 AFC/10^6 spleen cells
- AFC ([3]; 50 mg/kg/day×4): background levels
- LD10 [9]: 71 mg/kg/day×4
- change in life spans as compared with control animals ([4]; 13 mg/kg×4 (dose "equivalent" to 50 mg of Ia-11-diglyceride by molecular weight), inferred): no change in life spans
- % CHANGE IN LIFE SPAN ([4]; 50.0 mg/kg daily i.p. ×4 days): +17.6%
- AVERAGE SURVIVAL (DAYS ± S.E.) ([4]; 50.0 mg/kg daily i.p. ×4 days): 20.7 ± 5.4 days
- % CHANGE IN WEIGHT ([4]; 50.0 mg/kg daily i.p. ×4 days, control +0.66): -6.90%
- prolongation of survival times ([4]; 50 mg/kg/day×4): 18%
- suppression of CMI-DTH reactions ([5]; 11 or 50 mg/kg): poorly suppressed
- inhibition of tumor cell growth ([7]; 200 mg/kg/day×4, determined by palpation): no inhibition of tumor cell growth
